In ChEMBL document CHEMBL4831559, “Antitarget Selectivity and Tolerability of Novel Pyrrolo[2,3-d]pyrimidine RET Inhibitors” (ACS Med Chem Lett, 2021):
Calls of active or inactive are those of the source. No cut-off for these calls is given here.

How the values were obtained:
BaF3 [1] = experiment: cells; conditions: Mus musculus, BaF3, 48 h
Description: Antiproliferative activity against mouse BaF3 cells assessed as reduction in cell proliferation incubated for 48 hrs by cell proliferation assay

[2] = Toxicity in nude mouse transfected with mouse KIF5B-RET BaF3 cells assessed as adverse effect at 10 mg/kg, po qd measured after 14 days; assay type: organism-based; conditions: in vivo, 336 h, time 14 day
[3] = Clearance in BALB/c mouse at 2 mg/kg, iv measured by LC-MS/MS analysis; assay type: ADME, organism-based; conditions: in vivo
BaF3 [4] = experiment: Antitumor activity against mouse KIF5B-RET BaF3 cells xenografted in nude mouse assessed as tumor regression at 3 mg/kg, po qd measured after 12 days; conditions: time 12.0 day
[5] = target: T1, Voltage-gated inwardly rectifying potassium channel KCNH2 (Homo sapiens, UniProt Q12809); experiment: Inhibition of human ERG expressed in CHO cells by manual patch clamp assay; assay type: cell-based
[6] = target: T1, Voltage-gated inwardly rectifying potassium channel KCNH2; experiment: Displacement of [3H]-dofetilide from human ERG expressed in CHO cell after 90 mins by microbeta liquid scintillation counting method; assay type: cell-based
[7] = Cmax nude mouse xenografted with KIF5B-RET BaF3 cells xenografted at 3 mg/kg, po qd for 14 days; assay type: ADME, organism-based; design: route oral, time 14 day, dose 3 mg/kg; conditions: in vivo
[8] = Toxicity in nude mouse transfected with mouse KIF5B-RET BaF3 cells assessed as adverse effect at 30 mg/kg, po qd measured after 14 days; assay type: organism-based; conditions: in vivo, 336 h, time 14 day
[9] = Plasma protein binding in mouse at 5 uM measured after 16 hrs by LC-MS/MS based rapid equilibrium dialysis analysis; assay type: ADME, cell-free; conditions: read-out: PPB (converted)
[10] = AUC in nude mouse xenografted with KIF5B-RET BaF3 cells xenografted at 3 mg/kg, po qd for 14 days; assay type: ADME, organism-based; design: time 14 day, dose 3 mg/kg; conditions: in vivo
[11] = Cmax in BALB/c mouse at 2 mg/kg, iv measured by LC-MS/MS analysis; assay type: ADME, organism-based; design: route intravenous, dose 2 mg/kg; conditions: in vivo
[12] = fAUC in nude mouse xenografted with KIF5B-RET BaF3 cells xenografted at 3 mg/kg, po qd for 4 days; conditions: in vivo, 96 h
[13] = Half life in BALB/c mouse at 2 mg/kg, iv measured by LC-MS/MS analysis; assay type: ADME, organism-based; conditions: in vivo
[14] = Half life in BALB/c mouse at 10 mg/kg, po measured by LC-MS/MS analysis; assay type: ADME, organism-based; conditions: in vivo
[15] = fCmax in nude mouse xenografted with KIF5B-RET BaF3 cells xenografted at 3 mg/kg, po qd for 4 days; conditions: in vivo, 96 h
[16] = Cmax in BALB/c mouse at 10 mg/kg, po measured by LC-MS/MS analysis; assay type: ADME, organism-based; design: route oral, dose 10 mg/kg; conditions: in vivo
[17] = Volume of distribution at steady state in BALB/c mouse at 2 mg/kg, iv measured by LC-MS/MS analysis; assay type: ADME, organism-based; conditions: in vivo, read-out: Vdss
[18] = Oral bioavailability in BALB/c mouse at 10 mg/kg measured by LC-MS/MS analysis; assay type: ADME, organism-based; conditions: in vivo
[19] = AUC in BALB/c mouse at 2 mg/kg, iv measured by LC-MS/MS analysis; assay type: ADME, organism-based; design: dose 2 mg/kg; conditions: in vivo
[20] = AUC in BALB/c mouse at 10 mg/kg, po measured by LC-MS/MS analysis; assay type: ADME, organism-based; design: dose 10 mg/kg; conditions: in vivo
[21] = fCmax in nude mouse xenografted with KIF5B-RET BaF3 cells xenografted at 10 mg/kg, po qd for 14 days; assay type: ADME, organism-based; conditions: in vivo, 336 h, time 14 day
Mus musculus = experiment: Antitumor activity against mouse KIF5B-RET BaF3 cells xenografted in nude mouse assessed as tumor regression at 10 mg/kg, po qd measured after 16 days; assay type: functional, organism-based; conditions: time 16.0 day
[22] = fAUC in nude mouse xenografted with KIF5B-RET BaF3 cells xenografted at 10 mg/kg, po qd for 14 days; assay type: ADME, organism-based; conditions: in vivo, 336 h, time 14 day
[23] = Cmax in nude mouse xenografted with KIF5B-RET BaF3 cells xenografted at 10 mg/kg, po qd for 14 days; assay type: ADME, organism-based; design: route oral, time 14 day, dose 10 mg/kg; conditions: in vivo
[24] = AUC in nude mouse xenografted with KIF5B-RET BaF3 cells xenografted at 10 mg/kg, po qd for 14 days; assay type: ADME, organism-based; design: time 14 day, dose 10 mg/kg; conditions: in vivo
[25] = AUC in BALB/c mouse at 3.4 mg/kg, iv measured by LC-MS/MS analysis; assay type: ADME, organism-based; design: dose 3.4 mg/kg; conditions: in vivo
[26] = Volume of distribution at steady state in BALB/c mouse at 3.4 mg/kg, iv measured by LC-MS/MS analysis; assay type: ADME, organism-based; conditions: in vivo, read-out: Vdss
[27] = target: Proto-oncogene tyrosine-protein kinase receptor Ret (Homo sapiens, UniProt P07949); experiment: Inhibition of RET (658 to 1072) (unknown origin) by HTRF assay
Bcr/Abl fusion protein = Bcr/Abl fusion protein (Homo sapiens, UniProt P00519); experiment: Inhibition of BCR-ABL (unknown origin) expressed in mouse BaF3 cells assessed as reduction in cell proliferation incubated for 48 hrs by cell proliferation assay; assay type: cell-based
[28] = AUC in BALB/c mouse at 13.5 mg/kg, po measured by LC-MS/MS analysis; assay type: ADME, organism-based; design: dose 13.5 mg/kg; conditions: in vivo
[29] = Half life in BALB/c mouse at 13.5 mg/kg, po measured by LC-MS/MS analysis; assay type: ADME, organism-based; conditions: in vivo
[30] = Oral bioavailability in BALB/c mouse at 13.5 mg/kg measured by LC-MS/MS analysis; assay type: ADME, organism-based; conditions: in vivo
[31] = Clearance in BALB/c mouse at 3.4 mg/kg, iv measured by LC-MS/MS analysis; assay type: ADME, organism-based; conditions: in vivo
[32] = Cmax in BALB/c mouse at 3.4 mg/kg, iv measured by LC-MS/MS analysis; assay type: ADME, organism-based; design: route intravenous, dose 3.4 mg/kg; conditions: in vivo
[33] = Half life in BALB/c mouse at 3.4 mg/kg, iv measured by LC-MS/MS analysis; assay type: ADME, organism-based; conditions: in vivo
[34] = Cmax in BALB/c mouse at 13.5 mg/kg, po measured by LC-MS/MS analysis; assay type: ADME, organism-based; design: route oral, dose 13.5 mg/kg; conditions: in vivo

T1 sequence (Q12809 whole entry): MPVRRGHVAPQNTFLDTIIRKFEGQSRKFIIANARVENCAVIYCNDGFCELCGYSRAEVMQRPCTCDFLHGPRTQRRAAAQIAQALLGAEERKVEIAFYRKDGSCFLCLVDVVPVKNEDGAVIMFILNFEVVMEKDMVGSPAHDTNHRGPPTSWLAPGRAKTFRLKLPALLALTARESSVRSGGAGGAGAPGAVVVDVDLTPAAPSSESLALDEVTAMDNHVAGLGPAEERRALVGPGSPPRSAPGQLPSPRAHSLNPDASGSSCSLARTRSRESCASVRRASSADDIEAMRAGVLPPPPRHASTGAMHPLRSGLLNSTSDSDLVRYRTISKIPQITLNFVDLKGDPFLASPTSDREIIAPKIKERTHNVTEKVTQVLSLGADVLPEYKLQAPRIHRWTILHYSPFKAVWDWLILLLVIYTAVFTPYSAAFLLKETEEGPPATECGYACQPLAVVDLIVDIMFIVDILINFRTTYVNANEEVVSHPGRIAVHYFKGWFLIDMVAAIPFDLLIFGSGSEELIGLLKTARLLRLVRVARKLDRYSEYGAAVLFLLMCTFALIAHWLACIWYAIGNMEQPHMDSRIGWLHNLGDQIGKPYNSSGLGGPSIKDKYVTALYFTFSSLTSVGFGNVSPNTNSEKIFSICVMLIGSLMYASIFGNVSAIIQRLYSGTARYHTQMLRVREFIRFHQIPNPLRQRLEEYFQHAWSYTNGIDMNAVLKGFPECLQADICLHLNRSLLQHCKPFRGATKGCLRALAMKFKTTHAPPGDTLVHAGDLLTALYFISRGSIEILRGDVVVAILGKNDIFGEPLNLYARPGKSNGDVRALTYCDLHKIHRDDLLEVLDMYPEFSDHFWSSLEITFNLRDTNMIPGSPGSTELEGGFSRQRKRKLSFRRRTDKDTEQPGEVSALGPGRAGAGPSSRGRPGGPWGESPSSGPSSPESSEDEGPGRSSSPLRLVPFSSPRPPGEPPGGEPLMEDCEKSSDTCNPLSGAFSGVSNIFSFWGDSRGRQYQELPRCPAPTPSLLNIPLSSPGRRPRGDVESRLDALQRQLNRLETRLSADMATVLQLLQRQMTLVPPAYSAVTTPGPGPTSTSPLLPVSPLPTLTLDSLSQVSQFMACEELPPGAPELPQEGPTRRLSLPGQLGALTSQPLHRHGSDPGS
Sequence of Bcr/Abl fusion protein (P00519 whole entry, the tested form may be a part): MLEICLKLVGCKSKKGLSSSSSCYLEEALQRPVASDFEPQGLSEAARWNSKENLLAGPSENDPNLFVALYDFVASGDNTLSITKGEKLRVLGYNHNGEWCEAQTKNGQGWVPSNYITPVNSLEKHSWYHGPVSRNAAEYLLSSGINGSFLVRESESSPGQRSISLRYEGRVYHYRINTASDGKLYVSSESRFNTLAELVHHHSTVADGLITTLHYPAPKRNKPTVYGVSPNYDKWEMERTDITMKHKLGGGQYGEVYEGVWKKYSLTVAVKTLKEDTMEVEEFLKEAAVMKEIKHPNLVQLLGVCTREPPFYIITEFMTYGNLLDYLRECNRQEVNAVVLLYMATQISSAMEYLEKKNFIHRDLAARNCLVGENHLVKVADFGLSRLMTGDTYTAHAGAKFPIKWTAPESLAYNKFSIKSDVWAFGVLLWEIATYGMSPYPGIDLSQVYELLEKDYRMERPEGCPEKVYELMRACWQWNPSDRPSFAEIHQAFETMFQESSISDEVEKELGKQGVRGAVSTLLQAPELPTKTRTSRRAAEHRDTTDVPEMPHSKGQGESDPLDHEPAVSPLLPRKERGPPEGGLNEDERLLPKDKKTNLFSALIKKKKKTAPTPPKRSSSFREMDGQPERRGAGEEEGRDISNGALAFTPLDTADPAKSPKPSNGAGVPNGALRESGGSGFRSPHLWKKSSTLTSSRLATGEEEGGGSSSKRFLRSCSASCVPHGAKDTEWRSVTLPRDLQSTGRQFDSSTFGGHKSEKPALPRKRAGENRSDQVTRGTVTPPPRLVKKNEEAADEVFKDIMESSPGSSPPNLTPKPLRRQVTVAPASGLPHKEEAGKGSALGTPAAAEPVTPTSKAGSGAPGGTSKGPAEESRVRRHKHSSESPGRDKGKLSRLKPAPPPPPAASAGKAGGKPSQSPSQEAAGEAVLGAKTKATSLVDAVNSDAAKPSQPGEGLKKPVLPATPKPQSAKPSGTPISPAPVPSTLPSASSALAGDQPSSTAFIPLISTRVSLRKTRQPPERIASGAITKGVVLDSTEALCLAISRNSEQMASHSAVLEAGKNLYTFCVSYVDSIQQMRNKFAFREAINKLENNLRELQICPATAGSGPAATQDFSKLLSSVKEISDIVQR
Sequence of Bcr/Abl fusion protein (P11274 whole entry, further chain, the tested form may be a part): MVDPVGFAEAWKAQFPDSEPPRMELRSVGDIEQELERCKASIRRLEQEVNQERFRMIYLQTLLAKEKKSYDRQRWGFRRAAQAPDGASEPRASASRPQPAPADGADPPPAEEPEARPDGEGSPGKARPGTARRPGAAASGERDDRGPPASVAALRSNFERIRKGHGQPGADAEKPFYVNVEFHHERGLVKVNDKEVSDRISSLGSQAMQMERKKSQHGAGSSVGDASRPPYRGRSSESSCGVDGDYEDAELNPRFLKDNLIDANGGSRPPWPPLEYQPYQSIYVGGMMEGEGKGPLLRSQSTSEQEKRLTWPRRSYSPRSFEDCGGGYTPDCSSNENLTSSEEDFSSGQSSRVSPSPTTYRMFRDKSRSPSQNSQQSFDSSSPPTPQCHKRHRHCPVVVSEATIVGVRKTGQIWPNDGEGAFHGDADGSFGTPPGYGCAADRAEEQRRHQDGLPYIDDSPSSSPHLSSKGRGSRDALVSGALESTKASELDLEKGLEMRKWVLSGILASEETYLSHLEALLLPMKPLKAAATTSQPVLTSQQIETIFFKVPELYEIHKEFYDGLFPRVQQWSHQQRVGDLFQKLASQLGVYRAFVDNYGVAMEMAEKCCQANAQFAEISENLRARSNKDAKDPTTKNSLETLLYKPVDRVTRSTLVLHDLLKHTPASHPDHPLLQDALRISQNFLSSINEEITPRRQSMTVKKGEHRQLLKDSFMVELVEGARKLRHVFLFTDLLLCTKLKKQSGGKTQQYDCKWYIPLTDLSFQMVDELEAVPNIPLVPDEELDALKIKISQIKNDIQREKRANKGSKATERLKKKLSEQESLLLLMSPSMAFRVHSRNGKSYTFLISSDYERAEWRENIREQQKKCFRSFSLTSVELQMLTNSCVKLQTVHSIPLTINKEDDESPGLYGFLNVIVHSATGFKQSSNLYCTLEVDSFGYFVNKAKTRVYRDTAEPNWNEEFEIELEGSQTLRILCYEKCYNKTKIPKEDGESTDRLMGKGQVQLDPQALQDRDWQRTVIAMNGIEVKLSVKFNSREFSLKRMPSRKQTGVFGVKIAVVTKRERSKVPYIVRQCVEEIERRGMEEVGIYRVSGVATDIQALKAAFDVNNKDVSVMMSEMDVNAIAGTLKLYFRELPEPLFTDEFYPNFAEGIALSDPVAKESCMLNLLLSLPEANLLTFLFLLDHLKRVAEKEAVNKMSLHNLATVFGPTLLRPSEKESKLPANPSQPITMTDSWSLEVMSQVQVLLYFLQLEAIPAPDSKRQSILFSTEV
Sequence of Proto-oncogene tyrosine-protein kinase receptor Ret (P07949 whole entry, the tested form may be a part): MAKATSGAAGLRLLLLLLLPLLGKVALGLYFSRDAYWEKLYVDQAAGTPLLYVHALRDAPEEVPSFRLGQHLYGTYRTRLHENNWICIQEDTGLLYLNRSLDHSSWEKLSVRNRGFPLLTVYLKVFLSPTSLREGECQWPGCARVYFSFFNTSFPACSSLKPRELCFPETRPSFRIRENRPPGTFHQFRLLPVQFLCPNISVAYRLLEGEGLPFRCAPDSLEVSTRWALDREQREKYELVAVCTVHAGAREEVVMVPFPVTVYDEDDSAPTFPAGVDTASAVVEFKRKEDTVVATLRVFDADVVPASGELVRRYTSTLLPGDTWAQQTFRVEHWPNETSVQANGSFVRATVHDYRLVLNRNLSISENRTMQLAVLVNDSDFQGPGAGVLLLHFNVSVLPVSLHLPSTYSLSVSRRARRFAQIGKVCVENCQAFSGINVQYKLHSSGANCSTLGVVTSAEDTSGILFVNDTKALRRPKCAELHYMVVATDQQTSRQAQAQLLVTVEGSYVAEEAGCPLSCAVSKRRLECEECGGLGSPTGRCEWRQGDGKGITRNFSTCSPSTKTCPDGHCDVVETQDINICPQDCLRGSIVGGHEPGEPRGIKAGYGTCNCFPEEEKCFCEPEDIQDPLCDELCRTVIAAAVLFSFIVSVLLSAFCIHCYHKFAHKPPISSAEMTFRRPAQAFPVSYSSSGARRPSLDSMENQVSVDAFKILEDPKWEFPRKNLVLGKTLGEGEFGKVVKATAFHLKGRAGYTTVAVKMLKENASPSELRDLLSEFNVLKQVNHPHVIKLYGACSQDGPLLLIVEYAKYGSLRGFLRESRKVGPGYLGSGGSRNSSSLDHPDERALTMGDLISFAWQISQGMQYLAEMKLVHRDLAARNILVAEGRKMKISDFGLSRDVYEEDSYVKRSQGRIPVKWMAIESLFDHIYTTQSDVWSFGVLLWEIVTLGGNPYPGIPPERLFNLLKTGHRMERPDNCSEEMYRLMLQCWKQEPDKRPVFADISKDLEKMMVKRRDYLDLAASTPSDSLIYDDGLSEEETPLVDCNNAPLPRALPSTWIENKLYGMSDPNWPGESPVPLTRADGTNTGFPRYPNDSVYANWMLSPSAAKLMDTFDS

Compound: COc1cc(-c2cn([C@H]3C[C@@H](N4CCN(C(C)=O)CC4)C3)c3ncnc(N)c23)ccc1Cl
- IC50 (BaF3 [1]): > 10 µM

Compound: COC(=O)NC12CCC(n3cc(-c4ccc(Cl)c(N)c4)c4c(N)ncnc43)(CC1)CC2
- Activity [2]: Non-Toxic
- clearance [3]: 1.4 mL/min/kg
- Activity (BaF3 [4]): Active
- IC50 [5]: 3 µM
- IC50 [6]: 9.9 µM
- Cmax [7]: 7.4 µM
- Activity [8]: Non-Toxic
- fraction unbound at 16 h, 5 µM [9]: 0.0042
- AUC at 336 h [10]: 106 µM·h
- Cmax [11]: 5.6 µM
- fAUC [12]: 0.45 µM·h
- half-life [13]: 10 h
- half-life [14]: 22 h
- IC50 (BaF3 [1]): 2.6 µM
- fCmax [15]: 0.031 µM
- Cmax [16]: 9.5 µM
- Vd [17]: 1.1 L/kg
- bioavailability [18]: 58%
- AUC [19]: 54 µM·h
- AUC [20]: 160 µM·h

Compound: COC(=O)N[C@H]1CC[C@@H](n2cc(-c3ccc(Cl)c(N)c3)c3c(N)ncnc32)CC1
- Activity [2]: Non-Toxic
- clearance [3]: 1.9 mL/min/kg
- IC50 [5]: 5.3 µM
- IC50 [6]: 25 µM
- fCmax [21]: 0.26 µM
- fraction unbound at 16 h, 5 µM [9]: 0.031
- Cmax [11]: 14 µM
- half-life [13]: 3 h
- Activity (Mus musculus): Active
- half-life [14]: 3.7 h
- IC50 (BaF3 [1]): 4.6 µM
- Cmax [16]: 10 µM
- fAUC [22]: 1.6 µM·h
- Vd [17]: 0.37 L/kg
- Cmax [23]: 8.3 µM
- AUC at 336 h [24]: 50 µM·h
- bioavailability [18]: 60%
- AUC [19]: 41 µM·h
- AUC [20]: 120 µM·h

Compound: CC(=O)N1CCN([C@H]2C[C@@H](n3cc(-c4cc(O)ccc4F)c4c(N)ncnc43)C2)CC1
- AUC [25]: 2 µM·h
- Vd [26]: 1.4 L/kg
- IC50 [27]: 0.00054 µM
- IC50 (Bcr/Abl fusion protein): 4.2 µM
- AUC [28]: 0.3 µM·h
- half-life [29]: 1.3 h
- bioavailability [30]: 4%
- clearance [31]: 65 mL/min/kg
- Cmax [32]: 6.4 µM
- half-life [33]: 1.6 h
- Cmax [34]: 0.2 µM

Compound: CC(=O)N1CCN([C@H]2C[C@@H](n3cc(-c4ccc(Cl)c(O)c4)c4c(N)ncnc43)C2)CC1
- IC50 (BaF3 [1]): 3.7 µM

Compound: CC(=O)N1CCN([C@H]2C[C@@H](n3cc(-c4ccc(O)cc4)c4c(N)ncnc43)C2)CC1
- IC50 (BaF3 [1]): > 10 µM
